Assay results published in ChEMBL document CHEMBL1201862, “PubChem BioAssay data set” (2004).
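Compound exposure: 48 hours, 5 concentrations, 96-well plates. GI50 marks 50% less growth.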 Active and inactive are the calls of the source. Rule as the data show it: active = GI50 up to about 1.1 µM and inactive = higher.

Assays:
Assay in all cases: NCI tumour cell line growth inhibition, 48 h
786-0 = system: 786-0
ACHN = system: ACHN
CCRF-CEM = system: CCRF-CEM
DMS-273 = system: DMS-273
HOP-62 = system: HOP-62
HOP-92 = system: HOP-92
HT-29 = system: HT-29
LOX IMVI = system: LOX IMVI
M14 = system: M14
NCI-H460 = system: NCI-H460
OVCAR-8 = system: OVCAR-8
RPMI-8226 = system: RPMI-8226
RXF 393 = system: RXF 393
SK-MEL-28 = system: SK-MEL-28
SK-MEL-5 = system: SK-MEL-5
SK-OV-3 = system: SK-OV-3
SW-620 = system: SW-620
TK-10 = system: TK-10
OVCAR-5 = system: OVCAR-5
DU-145 = system: DU-145

SMILES	GI50 (786-0)	GI50 (ACHN)	GI50 (CCRF-CEM)	GI50 (DMS-273)	GI50 (HOP-62)	GI50 (HOP-92)	GI50 (HT-29)	GI50 (LOX IMVI)	GI50 (M14)	GI50 (NCI-H460)	GI50 (OVCAR-8)	GI50 (RPMI-8226)	GI50 (RXF 393)	GI50 (SK-MEL-28)	GI50 (SK-MEL-5)	GI50 (SK-OV-3)	GI50 (SW-620)	GI50 (TK-10)	GI50 (OVCAR-5)	GI50 (DU-145)
COc1ccc2c3c(c(C(=O)c4ccccc4)oc13)CCC2	> 100 µM (inactive)	> 100 µM (inactive)	> 100 µM (inactive)	> 100 µM (inactive)	> 100 µM (inactive)	< 0.01 µM (active)	79.4 µM (inactive)	> 100 µM (inactive)	> 100 µM (inactive)	> 100 µM (inactive)	> 100 µM (inactive)	> 100 µM (inactive)	17.5 µM (inactive)	> 100 µM (inactive)	> 100 µM (inactive)	> 100 µM (inactive)	> 100 µM (inactive)	> 100 µM (inactive)	–	–
C/C(CC(=O)N(C(C)C)C(C)C)=N\NC(=O)c1ccncc1	> 100 µM (inactive)	> 100 µM (inactive)	> 100 µM (inactive)	> 100 µM (inactive)	–	> 100 µM (inactive)	> 100 µM (inactive)	> 100 µM (inactive)	> 100 µM (inactive)	–	> 100 µM (inactive)	> 100 µM (inactive)	> 100 µM (inactive)	> 100 µM (inactive)	> 100 µM (inactive)	> 100 µM (inactive)	> 100 µM (inactive)	–	–	–
COc1c(C)cc2c(c1O)C1NC(C2)[C@H](O)N2C3COC(=O)[C@@]4(CS[C@@H](c5c(OC(C)=O)c(C)c6c(c53)OCO6)C12)NCCC1=C4NC2C=CC=CC12 (stereo partly drawn)	< 0.01 µM (active)	< 0.01 µM (active)	< 0.01 µM (active)	< 0.01 µM (active)	< 0.01 µM (active)	–	< 0.01 µM (active)	< 0.01 µM (active)	< 0.01 µM (active)	< 0.01 µM (active)	< 0.01 µM (active)	< 0.01 µM (active)	< 0.01 µM (active)	< 0.01 µM (active)	< 0.01 µM (active)	–	< 0.01 µM (active)	< 0.01 µM (active)	–	–
Cc1ccc(S(=O)(=O)N2CCC2c2ccccc2)cc1 (stereo not drawn)	> 100 µM (inactive)	> 100 µM (inactive)	80.4 µM (inactive)	91 µM (inactive)	> 100 µM (inactive)	10.1 µM (inactive)	> 100 µM (inactive)	> 100 µM (inactive)	> 100 µM (inactive)	> 100 µM (inactive)	> 100 µM (inactive)	66.2 µM (inactive)	84.5 µM (inactive)	> 100 µM (inactive)	42 µM (inactive)	> 100 µM (inactive)	> 100 µM (inactive)	> 100 µM (inactive)	–	–
N/C(=N\O)N/N=C/c1ccc(C(F)(F)F)cc1	9.73 µM (inactive)	4.61 µM (inactive)	9.68 µM (inactive)	16.6 µM (inactive)	15.5 µM (inactive)	18.4 µM (inactive)	17.9 µM (inactive)	–	10.6 µM (inactive)	5.04 µM (inactive)	13.4 µM (inactive)	–	29.9 µM (inactive)	62.4 µM (inactive)	–	6.98 µM (inactive)	31 µM (inactive)	23.9 µM (inactive)	–	–
COc1ccc2c3c([nH]c2c1[N+](=O)[O-])C(C)N(Cc1ccccc1)CC3 (stereo not drawn)	4.35 µM (inactive)	6.31 µM (inactive)	2.51 µM (inactive)	1.04 µM (active)	2.07 µM (inactive)	–	2.92 µM (inactive)	3.91 µM (inactive)	3.76 µM (inactive)	2.94 µM (inactive)	3.72 µM (inactive)	2.43 µM (inactive)	3.21 µM (inactive)	7.69 µM (inactive)	–	–	2.11 µM (inactive)	9.25 µM (inactive)	43.3 µM (inactive)	–
Nc1nc(SCCNC(=O)CCc2ccc(O)cc2)nc2c1ncn2C1OC(CO)C(O)C1O (stereo not drawn)	> 203 µM (inactive)	> 203 µM (inactive)	> 203 µM (inactive)	> 203 µM (inactive)	> 203 µM (inactive)	> 203 µM (inactive)	> 203 µM (inactive)	> 203 µM (inactive)	> 203 µM (inactive)	> 203 µM (inactive)	> 203 µM (inactive)	> 203 µM (inactive)	–	> 203 µM (inactive)	> 203 µM (inactive)	> 203 µM (inactive)	> 203 µM (inactive)	> 203 µM (inactive)	> 203 µM (inactive)	–
COC1OC(CO)C(O)C(O)C1Br (stereo not drawn)	> 100 µM (inactive)	> 100 µM (inactive)	> 100 µM (inactive)	> 100 µM (inactive)	> 100 µM (inactive)	> 100 µM (inactive)	> 100 µM (inactive)	> 100 µM (inactive)	> 100 µM (inactive)	> 100 µM (inactive)	> 100 µM (inactive)	> 100 µM (inactive)	> 100 µM (inactive)	> 100 µM (inactive)	> 100 µM (inactive)	–	> 100 µM (inactive)	> 100 µM (inactive)	> 100 µM (inactive)	–
C[N+](C)(C)Cc1c(CC#N)[nH]c2ccccc12	24.7 µM (inactive)	> 100 µM (inactive)	35.4 µM (inactive)	> 100 µM (inactive)	> 100 µM (inactive)	–	> 100 µM (inactive)	> 100 µM (inactive)	84.7 µM (inactive)	> 100 µM (inactive)	> 100 µM (inactive)	31.6 µM (inactive)	> 100 µM (inactive)	> 100 µM (inactive)	> 100 µM (inactive)	–	> 100 µM (inactive)	> 100 µM (inactive)	> 100 µM (inactive)	–
Cn1c(C2CC(C)(C)c3c2c2ccccc2n3C)cc2ccccc21 (stereo not drawn)	> 304 µM (inactive)	> 304 µM (inactive)	> 304 µM (inactive)	> 304 µM (inactive)	> 304 µM (inactive)	40.9 µM (inactive)	> 304 µM (inactive)	> 304 µM (inactive)	–	> 304 µM (inactive)	> 304 µM (inactive)	118 µM (inactive)	> 304 µM (inactive)	> 304 µM (inactive)	> 304 µM (inactive)	> 304 µM (inactive)	> 304 µM (inactive)	> 304 µM (inactive)	> 304 µM (inactive)	–
CC/C=C1\N=C(c2ccc(Cl)cc2)OC1=O	> 100 µM (inactive)	> 100 µM (inactive)	> 100 µM (inactive)	> 100 µM (inactive)	> 100 µM (inactive)	> 100 µM (inactive)	> 100 µM (inactive)	> 100 µM (inactive)	> 100 µM (inactive)	> 100 µM (inactive)	> 100 µM (inactive)	> 100 µM (inactive)	> 100 µM (inactive)	> 100 µM (inactive)	–	> 100 µM (inactive)	> 100 µM (inactive)	> 100 µM (inactive)	> 100 µM (inactive)	–
COC1/C=C\C=C(/C)C(=O)NC2=CC(=O)C(N)=C(CC(C)CC(OC)C(O)C(C)C=C(C)C1OC(N)=O)C2=O (stereo not drawn)	0.368 µM (active)	0.0935 µM (active)	0.178 µM (active)	–	< 0.0199 µM (active)	0.0156 µM (active)	< 0.01 µM (active)	0.0193 µM (active)	0.0204 µM (active)	< 0.01 µM (active)	< 0.0203 µM (active)	0.195 µM (active)	2.93 µM (inactive)	< 0.0266 µM (active)	0.042 µM (active)	< 0.0123 µM (active)	< 0.0133 µM (active)	0.321 µM (active)	0.375 µM (active)	< 0.0199 µM (active)
Cc1c(C(=O)N2CCN(c3ccc([N+](=O)[O-])cc3)CC2)[n+]([O-])c2cc(Cl)c(Cl)cc2[n+]1[O-]	16.5 µM (inactive)	13.5 µM (inactive)	> 100 µM (inactive)	–	21.7 µM (inactive)	15.2 µM (inactive)	25.2 µM (inactive)	29.9 µM (inactive)	27.1 µM (inactive)	19.5 µM (inactive)	16.9 µM (inactive)	15.6 µM (inactive)	13.6 µM (inactive)	26.4 µM (inactive)	10.9 µM (inactive)	15.9 µM (inactive)	21.6 µM (inactive)	21.6 µM (inactive)	21.6 µM (inactive)	19.8 µM (inactive)
COc1ccc(-n2nnnc2C2(Nc3ccccc3)CCN(Cc3ccccc3)CC2)cc1	13.6 µM (inactive)	31.8 µM (inactive)	18.7 µM (inactive)	–	16.5 µM (inactive)	3.45 µM (inactive)	6.82 µM (inactive)	9.29 µM (inactive)	14.2 µM (inactive)	11.2 µM (inactive)	19 µM (inactive)	9.77 µM (inactive)	17.5 µM (inactive)	13.5 µM (inactive)	10.2 µM (inactive)	13.6 µM (inactive)	7.38 µM (inactive)	12.4 µM (inactive)	15.7 µM (inactive)	24.9 µM (inactive)
C(=N\c1ccc(-c2nc3ccccc3s2)cc1)/c1ccc[nH]1	21.9 µM (inactive)	20.7 µM (inactive)	21.7 µM (inactive)	–	12.5 µM (inactive)	17.4 µM (inactive)	19.8 µM (inactive)	17.3 µM (inactive)	17.9 µM (inactive)	17.1 µM (inactive)	27.6 µM (inactive)	15.5 µM (inactive)	16 µM (inactive)	20.1 µM (inactive)	16.7 µM (inactive)	17.7 µM (inactive)	22.4 µM (inactive)	31.8 µM (inactive)	22 µM (inactive)	17.3 µM (inactive)
